In brackets after ≈: the same amount, converted by molar mass.
Key:
[1] = Inhibition of urease (unknown origin)
[2] = Inhibition of HIV-1 integrase; parameters: species or system Human immunodeficiency virus 1
Alpha-glucosidase [3] = biological target: T1, Alpha-glucosidase (Saccharomyces cerevisiae S288c, UniProt P53341+P38158+P07265); assay: Inhibition of Baker's yeast alpha-glucosidase using pNPG as substrate assessed as release of p-nitrophenol preincubated for 10 mins followed by substrate addition and measured after 30 mins by microplate reader analysis; type: protein assay
[4] = biological target: T2, Hepatocyte growth factor receptor (Homo sapiens, UniProt P08581); assay: Inhibition of c-Met (unknown origin)
Alpha-glucosidase [5] = biological target: T1, Alpha-glucosidase; assay: Inhibition of Saccharomyces cerevisiae alpha-glucosidase using pNPG as substrate incubated for 30 mins by microplate reader analysis; type: protein assay
[6] = Inhibition of HIV-1 wild-type integrase using U5A/U5B-2 labeled double-stranded DNA as substrate by beta radiation counter analysis; parameters: species or system Human immunodeficiency virus 1
DNA polymerase beta = DNA polymerase beta (Homo sapiens, UniProt P06746); assay: Inhibition of DNA polymerase beta (unknown origin)
[7] = biological target: T2, Hepatocyte growth factor receptor; assay: Inhibition of c-Met (unknown origin) using poly (Glu,Tyr) at 4:1 ratio as substrate incubated for 60 mins by ELISA
Protein kinase C (PKC) = assay: Inhibition of PKC (unknown origin) using acetylated myelin basic protein (4 to 14 residues) as substrate incubated for [gamma-32P]-ATP incubated for 5 mins by scintillation counter analysis; type: protein assay, Homo sapiens
[8] = biological target: cAMP-dependent protein kinase (PKA) (Homo sapiens, UniProt P22694+P17612+P22612); assay: Inhibition of PKA (unknown origin) using Kemptide as substrate incubated for [gamma-32P]-ATP incubated for 5 mins by scintillation counter analysis; type: protein assay
[9] = Inhibition of porcine pancreas alpha-amylase using CNP-G3 as substrate preincubated for 10 mins followed by substrate addition and measured after 30 mins by microplate reader analysis; parameters: species or system Sus scrofa

T2 sequence (P08581 whole entry): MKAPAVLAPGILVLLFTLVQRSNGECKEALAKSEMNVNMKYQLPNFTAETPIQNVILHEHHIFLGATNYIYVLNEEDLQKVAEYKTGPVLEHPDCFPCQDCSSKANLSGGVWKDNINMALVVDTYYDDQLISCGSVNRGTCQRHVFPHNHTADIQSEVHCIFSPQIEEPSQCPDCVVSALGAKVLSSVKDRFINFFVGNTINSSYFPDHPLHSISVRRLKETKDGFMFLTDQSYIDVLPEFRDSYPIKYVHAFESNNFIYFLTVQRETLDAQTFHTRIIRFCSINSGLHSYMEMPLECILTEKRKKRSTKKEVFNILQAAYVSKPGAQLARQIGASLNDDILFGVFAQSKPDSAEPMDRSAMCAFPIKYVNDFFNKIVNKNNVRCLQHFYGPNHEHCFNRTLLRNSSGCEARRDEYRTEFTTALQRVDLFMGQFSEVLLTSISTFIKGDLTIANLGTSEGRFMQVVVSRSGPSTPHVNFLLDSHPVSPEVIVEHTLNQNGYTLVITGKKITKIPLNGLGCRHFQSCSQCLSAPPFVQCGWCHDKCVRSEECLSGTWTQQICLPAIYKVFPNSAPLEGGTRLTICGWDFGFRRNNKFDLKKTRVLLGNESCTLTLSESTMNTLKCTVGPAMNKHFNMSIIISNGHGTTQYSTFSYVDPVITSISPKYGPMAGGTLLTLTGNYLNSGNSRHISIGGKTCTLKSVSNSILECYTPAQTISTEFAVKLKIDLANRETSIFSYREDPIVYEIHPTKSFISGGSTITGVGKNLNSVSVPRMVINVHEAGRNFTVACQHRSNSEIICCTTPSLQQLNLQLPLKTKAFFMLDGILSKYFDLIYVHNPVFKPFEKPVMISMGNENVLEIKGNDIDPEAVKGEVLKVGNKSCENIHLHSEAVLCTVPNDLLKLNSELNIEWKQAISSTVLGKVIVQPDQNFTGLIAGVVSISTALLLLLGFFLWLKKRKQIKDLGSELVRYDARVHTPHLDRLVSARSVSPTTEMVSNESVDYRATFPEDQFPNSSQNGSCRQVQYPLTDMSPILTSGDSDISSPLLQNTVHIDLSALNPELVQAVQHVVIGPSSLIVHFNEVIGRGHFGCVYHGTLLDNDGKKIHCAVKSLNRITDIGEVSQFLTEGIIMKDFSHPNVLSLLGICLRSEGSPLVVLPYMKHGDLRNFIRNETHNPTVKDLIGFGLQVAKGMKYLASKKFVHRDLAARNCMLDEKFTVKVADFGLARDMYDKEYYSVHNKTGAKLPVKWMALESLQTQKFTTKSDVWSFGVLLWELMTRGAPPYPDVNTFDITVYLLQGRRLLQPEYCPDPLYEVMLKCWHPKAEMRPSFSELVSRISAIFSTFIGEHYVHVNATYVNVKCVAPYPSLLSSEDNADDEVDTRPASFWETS

Structure (SMILES): O=c1oc2ccccc2c(O)c1C(c1c(O)c2ccccc2oc1=O)c1c[nH]c2ccccc12
- IC50 [1]: 48.4 µM

Structure (SMILES): O=c1oc2ccccc2c(O)c1C(c1cccnc1)c1c(O)c2ccccc2oc1=O
- IC50 [1]: 35 µM

Structure (SMILES): O=c1oc2ccccc2c(O)c1C(c1ccc[nH]1)c1c(O)c2ccccc2oc1=O
- IC50 [1]: 46.1 µM

Structure (SMILES): O=c1oc2ccccc2c(O)c1C(c1ccc(C(c2c(O)c3ccccc3oc2=O)c2c(O)c3ccccc3oc2=O)cc1)c1c(O)c2ccccc2oc1=O
- IC50 [2]: 8 µM

Structure (SMILES): C/C=C/C(c1c(O)c2ccccc2oc1=O)c1c(O)c2ccccc2oc1=O
- IC50 [1]: 42.9 µM

Structure (SMILES): COc1ccc(NC(=S)Nc2ccc(C(c3c(O)c4ccccc4oc3=O)c3c(O)c4ccccc4oc3=O)cc2)cc1
- IC50 (Alpha-glucosidase [3]): 13.5 µM

Structure (SMILES): O=c1cc(O)c2ccc(O)c(O)c2o1
- IC50 [4]: 100 µM

Structure (SMILES): O=c1ccc2ccc(O)c(-c3c(O[C@@H]4OC(CO)[C@@H](O)C(O)C4O)ccc4ccc(=O)oc34)c2o1 (some centres not stated)
- IC50 (Alpha-glucosidase [5]): 760 µg/mL (≈ 1570 µM)

Structure (SMILES): O=C(Oc1ccc(C(c2c(O)c3ccccc3oc2=O)c2c(O)c3ccccc3oc2=O)cc1)c1ccc(C(c2c(O)c3ccccc3oc2=O)c2c(O)c3ccccc3oc2=O)cc1
- IC50 [6]: 0.49 µM

Structure (SMILES): CC(=O)Oc1ccc(/C=C/C(=O)Oc2ccc(C(c3c(O)c4ccccc4oc3=O)c3c(O)c4ccccc4oc3=O)cc2)cc1OC(C)=O
- IC50 [6]: 2.6 µM

Structure (SMILES): O=c1oc2ccccc2c(O)c1C(c1ccc(NC(=S)Nc2ccc([N+](=O)[O-])cc2)cc1)c1c(O)c2ccccc2oc1=O
- IC50 (DNA polymerase beta): 24.7 µM

Structure (SMILES): O=C(CCCCC1CCSS1)Oc1ccc(C(c2c(O)c3ccccc3oc2=O)c2c(O)c3ccccc3oc2=O)cc1 (configuration not stated)
- IC50 [6]: 2.3 µM

Structure (SMILES): Cc1ccc(C(=O)OCCN(CCOC(=O)c2ccc(C)cc2)c2ccc(C(c3c(O)c4ccccc4oc3=O)c3c(O)c4ccccc4oc3=O)cc2)cc1
- IC50 [6]: 1.8 µM

Structure (SMILES): O=C(Oc1ccc(C(c2c(O)c3ccccc3oc2=O)c2c(O)c3ccccc3oc2=O)cc1)c1ccccc1O
- IC50 [6]: 10 µM

Structure (SMILES): O=C(Oc1ccc(C(c2c(O)c3ccccc3oc2=O)c2c(O)c3ccccc3oc2=O)cc1)c1ccc(O)cc1O
- IC50 [6]: 4.9 µM

Structure (SMILES): O=C(OCCN(CCOC(=O)c1ccc(Br)cc1)c1ccc(C(c2c(O)c3ccccc3oc2=O)c2c(O)c3ccccc3oc2=O)cc1)c1ccc(Br)cc1
- IC50 [6]: 0.96 µM

Structure (SMILES): O=C(Oc1ccc(C(c2c(O)c3ccccc3oc2=O)c2c(O)c3ccccc3oc2=O)cc1)c1ccc(O)cc1
- IC50 [6]: 3.2 µM

Structure (SMILES): CC(=O)Oc1cc(OC(C)=O)cc(C(=O)Oc2ccc(C(c3c(O)c4ccccc4oc3=O)c3c(O)c4ccccc4oc3=O)cc2)c1
- IC50 [6]: 9.3 µM

Structure (SMILES): CC(=O)Oc1cccc(C(=O)Oc2ccc(C(c3c(O)c4ccccc4oc3=O)c3c(O)c4ccccc4oc3=O)cc2)c1
- IC50 [6]: 7.1 µM

Structure (SMILES): CC(=O)Oc1ccc(C(=O)Oc2ccc(C(c3c(O)c4ccccc4oc3=O)c3c(O)c4ccccc4oc3=O)cc2)c(OC(C)=O)c1
- IC50 [6]: 19 µM

Structure (SMILES): O=C(Oc1ccc(C(c2c(O)c3ccccc3oc2=O)c2c(O)c3ccccc3oc2=O)cc1)c1cccc(O)c1
- IC50 [6]: 6.1 µM

Structure (SMILES): O=C(Oc1ccc(C(c2c(O)c3ccccc3oc2=O)c2c(O)c3ccccc3oc2=O)cc1)c1cc(O)ccc1O
- IC50 [6]: 25 µM

Structure (SMILES): CCCCCCC(NC(=O)c1cc2ccc(O)c(O)c2oc1=O)C(=O)Nc1cc2ccc(O)c(O)c2oc1=O (configuration not stated)
- IC50 [7]: 0.03 µM

Structure (SMILES): O=C(/C=C/c1ccc(O)c(O)c1)Oc1ccc(C(c2c(O)c3ccccc3oc2=O)c2c(O)c3ccccc3oc2=O)cc1
- IC50 [6]: 2.6 µM

Structure (SMILES): Cc1ccc(C(=O)Oc2cc(OC(=O)c3ccc(C)cc3)cc(C(c3c(O)c4ccccc4oc3=O)c3c(O)c4ccccc4oc3=O)c2)cc1
- IC50 [6]: 0.58 µM

Structure (SMILES): COc1ccccc1NC(=S)Nc1ccc(C(c2c(O)c3ccccc3oc2=O)c2c(O)c3ccccc3oc2=O)cc1
- IC50 (Alpha-glucosidase [3]): 104.62 µM

Structure (SMILES): O=C(Oc1ccc(C(c2c(O)c3ccccc3oc2=O)c2c(O)c3ccccc3oc2=O)cc1)c1ccc(O)c(O)c1
- IC50 [6]: 1.5 µM

Structure (SMILES): COc1cccc(NC(=S)Nc2ccc(C(c3c(O)c4ccccc4oc3=O)c3c(O)c4ccccc4oc3=O)cc2)c1
- IC50 (Alpha-glucosidase [3]): 25.31 µM

Structure (SMILES): COc1ccc(/C=C/C(=O)Oc2ccc(C(c3c(O)c4ccccc4oc3=O)c3c(O)c4ccccc4oc3=O)cc2)cc1OC
- IC50 [6]: 2.6 µM

Structure (SMILES): CC(=O)Oc1ccccc1C(=O)Oc1ccc(C(c2c(O)c3ccccc3oc2=O)c2c(O)c3ccccc3oc2=O)cc1
- IC50 [6]: 27 µM

Structure (SMILES): CC(=O)Oc1ccc(C(=O)Oc2ccc(C(c3c(O)c4ccccc4oc3=O)c3c(O)c4ccccc4oc3=O)cc2)cc1
- IC50 [6]: 4.6 µM

Structure (SMILES): COc1cc2c(O)c(Cc3ccc4ccc(=O)oc4c3)c(=O)oc2cc1O
- IC50 (DNA polymerase beta): 122 µM

Structure (SMILES): O=c1ccc2ccc(Cc3c(O)c4cc(O)c(O)cc4oc3=O)cc2o1
- IC50 (DNA polymerase beta): 94.8 µM

Structure (SMILES): CC(=O)Oc1ccc(OC(C)=O)c(C(=O)Oc2ccc(C(c3c(O)c4ccccc4oc3=O)c3c(O)c4ccccc4oc3=O)cc2)c1
- IC50 [6]: 9.7 µM

Structure (SMILES): COc1cc2c(O)c(Oc3cc(O[C@@H]4O[C@H](CO)[C@@H](O)[C@H](O)[C@H]4O[C@@H]4O[C@H](CO)[C@@H](O)[C@H](O)[C@H]4O)c4ccc(=O)oc4c3)c(=O)oc2cc1O
- IC50 (Alpha-glucosidase [5]): 231 µg/mL (≈ 326 µM)

Structure (SMILES): O=c1ccc2ccc(Cc3cc4ccc(O)cc4oc3=O)cc2o1
- IC50 (DNA polymerase beta): 22.5 µM

Structure (SMILES): CC(=O)Oc1ccc(C(=O)Oc2ccc(C(c3c(O)c4ccccc4oc3=O)c3c(O)c4ccccc4oc3=O)cc2)cc1OC(C)=O
- IC50 [6]: 1.9 µM

Structure (SMILES): O=C(Oc1ccc(C(c2c(O)c3ccccc3oc2=O)c2c(O)c3ccccc3oc2=O)cc1)c1cc(O)cc(O)c1
- IC50 [6]: 53 µM

Structure (SMILES): O=C(Oc1c(C(c2ccc(O)cc2)c2c(O)c3ccccc3oc2=O)c(=O)oc2ccccc12)c1ccc(O)c(O)c1 (configuration not stated)
- IC50 [6]: 37 µM

Structure (SMILES): CC(C)CC(NC(=O)c1cc2ccc(O)c(O)c2oc1=O)C(=O)Nc1cc2ccc(O)c(O)c2oc1=O (configuration not stated)
- IC50 [7]: 0.107 µM

Structure (SMILES): O=c1oc2c(O)c(O)ccc2c(O)c1Cc1c(O)c2ccc(O)c(O)c2oc1=O
- IC50 [4]: 151 µM

Structure (SMILES): O=c1ccc2ccc(O)c(O)c2o1 [DAPHNETIN]
- IC50 (Protein kinase C (PKC)): 25.01 µM
- IC50 [8]: 9.33 µM

Structure (SMILES): COc1cc2cc(Oc3ccc4ccc(=O)oc4c3)c(=O)oc2cc1O [DAPHNORETIN]
- IC50 [9]: 90 µg/mL (≈ 255 µM)
- IC50 (Alpha-glucosidase [5]): 86 µg/mL (≈ 244 µM)

Structure (SMILES): O=c1oc2ccccc2c(O)c1Cc1c(O)c2ccccc2oc1=O [DICUMAROL]
- IC50 [1]: 15 µM

Structure (SMILES): O=c1ccc2ccc(Oc3cc4cc(O)c(O)cc4oc3=O)cc2o1 [EDGEWORTHIN]
- IC50 (Alpha-glucosidase [5]): 49.6 µg/mL (≈ 147 µM)

From ChEMBL document CHEMBL5260826, “Enzyme inhibitory activities an insight into the structure-Activity relationship of biscoumarin derivatives” (Eur J Med Chem, 2017)
